Common to all, as to assay type: cell-based
The subject of test [1] is SKOV3 cells. Briefly: Dose response of fluorescence generated in SKOV3 cells. To be noted: 1 hour; for Mean intensity: SKOV3 cells, RPMI + 0.25% BSA, image J. The method, then:
This experiment establishes that compound 24 provides a dose response relative to the fluorescence generated. Specifically, SKOV3 cells were incubated with 10 μM, 25 μM, or 50 μM of compound 24 in RPMI supplemented with 0.25% BSA. Cells were incubated for 1 hour then washed with HBSS and imaged as before.
All images were analyzed using exactly the same parameters using the image J software suite. Mean intensity was measured from identical regions with in each image. […] While BSA was used as a supplement, acylated BSA may be more practical.

Test [2] addresses T1, folate binding protein (folate receptor) on SKOV3 cells (Homo sapiens, UniProt P15328).
T1 construct: endogenous in cells; host or cells: SKOV3 cells
Briefly: Folate competition: labeling of ovarian cancer cells via the folic acid receptor. To be noted: 10 μM compound alone vs 10 μM + 1 mM folate (100×). Here is the method: This example establishes that compound 24 is specific for the folate receptor. Specifically, compound 24 was used in a folate free medium and in a medium using excess folate that competed with compound 24. The rationale is that in the presence of excess folate, compound 24 would have to compete for binding to the folate binding protein and therefore there would be less signal than when compound 24 was the sole source of folate.
To test this hypothesis, SKOV3 cells were incubated with 10 μM of compound 24 or with 10 μM of compound 24+1 mM folate (100×s). Cells were then washed and imaged as before.
All images were analyzed using exactly the same parameters. Mean intensity was measured from identical regions with in each image. […] These images establish that compound 24 binds to cells through the folate binding protein and not by some other route.

Test [3] concerns SDOV3 cells (an ovarian cancer cell line). As to the kind of experiment: Detection of ovarian cancer cells: absorption and intracellular deacylation to a fluorescent structure, fluorescence microscopy. To be noted: folate-free medium (no FBS), washed with HBSS, 20× immersion objective. Here is the method: Compound 24 and comparative compound A were evaluated for their ability to be absorbed by cancer cells and then, in the case of compound 24, deacylated by intracellular esterases so as to regenerate a fluorescent structure. Specifically, approximately 500,000 SDOV3 cells (an ovarian cancer cell line) were seeded into separate 35 mm culture dishes containing a folate-free growth medium (RPMI+10% FBS). The next day, the medium was replaced with a folate-free medium (no FBS). In one culture dish, the medium was supplemented with 25 micromolar of compound 24; and, in another culture dish, the medium was supplemented with 50 micromolar of comparative compound A. After incubation, the cells were washed with HBSS (Hank's balanced salt solution) to remove unbound compound. The cells were then imaged with a 20× immersion objective on a standard upright fluorescent microscope. […] FIG. 1 illustrates a picture showing the fluorescence generated. Note that only the cancer cells evidenced fluorescence and that the solution remained non-fluorescent. […] This evidences that that composition was not suitable for use in the methods described herein.

The test system of test [4] is MCF7 cells, a breast cancer cell line that expresses folate binding protein. Briefly: Labeling of MCF7 cells (correlation between folic acid receptors and fluorescence intensity). To be noted: MCF cells, 10 uM, one hour, folate-free RPMI, no FBS. The method, then: In this experiment, the procedures set forth above were repeated with the exception that SKOV3 cells were replaced with MCF7 cells—a breast cancer cell line that expresses folate binding protein albeit at a level lower than that of the SKOV3 cells. […] However, the fluorescent intensity generated by the MCF7 cells was less than that generated by SKOV3 cells.
Specifically, MCF cells were labeled at 10 uM with compound 24 for one hour in folate-free RPMI, no FBS. Cells were washed and imaged.

T1 sequence (P15328 25-234): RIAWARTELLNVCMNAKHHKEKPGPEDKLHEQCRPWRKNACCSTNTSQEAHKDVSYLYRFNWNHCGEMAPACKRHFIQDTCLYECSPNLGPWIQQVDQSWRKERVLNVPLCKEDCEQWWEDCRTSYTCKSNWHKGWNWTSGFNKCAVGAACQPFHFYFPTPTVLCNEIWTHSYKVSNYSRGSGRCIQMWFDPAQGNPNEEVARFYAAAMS

Regarding “O,O′-(5-(3-(4-((4-(4-(((2-amino-4-oxo-3,4-dihydropteridin-6-yl)methyl)amino)benzamido)-5-methoxy-5-oxopentanamido)methyl)phenyl)thioureido)-3-oxo-3H-spiro[isobenzofuran-1,9′-xanthene]-3′,6′-diyl) bis)(2-methoxyethyl) Disuccinate [compound 24]”, the Mean intensity in test [1] (10 μM) was 312.8; in test [1] (25 μM), 360.4; in test [1] (50 μM), 545.5. Besides, in test [1] (SKOV3 cells, 10, 25, 50 μM), the “dose response in labeling cells” value was “clear dose response”. In addition, the “competition by excess folate for labeling ovarian cancer cells” value in test [2] was “folate competes with compound 24”. For the same compound, the “fluorescent signal of cancer cells after incubation” value in test [3] (25 micromolar) is “clear, consistent and unambiguous”. For the same compound, the “labeling of cells (fluorescence)” value in test [4] is given as “labeling is faint”.

Turning to `Nc1nc2ncc(CNc3ccc(C(=O)NC(CCC(=O)NCCCCCNC(=O)c4cccc(-c5c6ccc(=O)cc-6oc6cc(O)ccc56)c4C(=O)O)C(=O)O)cc3)nc2c(=O)[nH]1` (centres unmarked) [comparative compound A, reference compound], the “fluorescent signal of cancer cells after incubation” value in test [3] (50 micromolar) was “showed a burst of fluorescence but immediately the fluorescence was bleached”.

The record behind these values is US10890588B2, “Compositions and methods for detecting cancer cells in a tissue sample” (ISI Life Sciences, Inc., priority 2016, dated 2021).
